Drawing on PubChem BioAssay AID328 (DTP/NCI, 2004), this text covers T/C for 17 compounds.

The subject of this experiment is BDF1 mice, P388 leukemia ip, median survival T/C. Briefly: NCI In Vivo Anticancer Drug Screen. Data for tumor model P388 Leukemia (intraperitoneal) in B6D2F1 (BDF1) mice. The settings on record: endpoint: median survival time, higher = longer survival. The method, boiled down:
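Mice carrying the transplantable tumour receive compound or vehicle. Survival is followed in each arm, and the treated measure is divided by the vehicle measure.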

The mark [1] stands for this setting: dose: 50.0 mg/kg/injection, schedule: Q01DX009 (ip), vehicle: saline with Tween-80.
[2] abbreviates: dose: 100.0 mg/kg/injection, schedule: Q01DX009 (ip), vehicle: saline with Tween-80.
Where [3] appears, read: dose: 200.0 mg/kg/injection, schedule: Q01DX009 (ip), vehicle: saline with Tween-80.
Setting [4] is: dose: 6.25 mg/kg/injection, schedule: Q01DX009 (ip), vehicle: saline.
Where [5] appears, read: dose: 12.5 mg/kg/injection, schedule: Q01DX009 (ip), vehicle: saline.
Where [6] appears, read: dose: 100.0 mg/kg/injection, schedule: Q01DX009 (ip), vehicle: Klucel (hydroxypropylcellulose) (HPC).
The mark [7] stands for this setting: dose: 200.0 mg/kg/injection, schedule: Q01DX009 (ip), vehicle: Klucel (hydroxypropylcellulose) (HPC).
[8] abbreviates: dose: 400.0 mg/kg/injection, schedule: Q01DX009 (ip), vehicle: Klucel (hydroxypropylcellulose) (HPC).

Structures are written as SMILES. Values joined by “and” are separate entries in the source; they are usually repeats but may differ in a detail not shown here. Identical values can stand only once. Toxic doses and inconclusive results are not listed.

In the case of `COc1cc2cc(c1Cl)NC(=O)/C=C/[C@]1(C)O[C@H]1[C@H](C)[C@@H]1C[C@@](O)(NC(=O)O1)[C@H](OC)C=C/C=C(\C)C2`, the T/C is 100 % of control (dose: 0.2 micrograms/kg/injection, schedule: Q01DX009 (ip), vehicle: saline + alcohol); 100 % of control (dose: 0.4 micrograms/kg/injection, schedule: Q01DX009 (ip), vehicle: saline + alcohol); 90 % of control (dose: 0.8 micrograms/kg/injection, schedule: Q01DX009 (ip), vehicle: saline + alcohol); 100 % of control (dose: 1.6 micrograms/kg/injection, schedule: Q01DX009 (ip), vehicle: saline + alcohol); 115 % of control (dose: 3.1 micrograms/kg/injection, schedule: Q01DX009 (ip), vehicle: saline + alcohol); 115 % of control (dose: 6.2 micrograms/kg/injection, schedule: Q01DX009 (ip), vehicle: saline + alcohol). Besides, the T/C reads like this: (dose: 12.5 micrograms/kg/injection, schedule: Q01DX009 (ip), vehicle: saline + alcohol) 87 % of control and 110 % of control; (dose: 25.0 micrograms/kg/injection, schedule: Q01DX009 (ip), vehicle: saline + alcohol) 87 % of control and 110 % of control; (dose: 50.0 micrograms/kg/injection, schedule: Q01DX009 (ip), vehicle: saline + alcohol) 91 % of control and 110 % of control; (dose: 100.0 micrograms/kg/injection, schedule: Q01DX009 (ip), vehicle: saline + alcohol) 91 % of control and 95 % of control.
In the case of `Cn1cnnc1N`, the T/C reads like this: (dose: 100.0 mg/kg/injection, schedule: Q01DX001 (ip), vehicle: saline) 100 % of control; (dose: 200.0 mg/kg/injection, schedule: Q01DX001 (ip), vehicle: saline) 95 % of control; (dose: 400.0 mg/kg/injection, schedule: Q01DX001 (ip), vehicle: saline) 104 % of control.
Consider `O=CN(c1ccccc1)c1ccccc1`, for which the T/C is 110 % of control under setting [1]; 104 % of control (dose: 100.0 mg/kg/injection, schedule: Q01DX001 (ip), vehicle: other); 95 % of control under setting [2]; 91 % of control (dose: 100.0 mg/kg/injection, schedule: Q04DX003 (ip), vehicle: other); 95 % of control (dose: 100.0 mg/kg/injection, schedule: Q04DX003 (ip), vehicle: saline); 115 % of control (dose: 175.0 mg/kg/injection, schedule: Q04DX003 (ip), vehicle: saline with Tween-80). For the same compound, the T/C was 108 % of control (dose: 200.0 mg/kg/injection, schedule: Q01DX001 (ip), vehicle: other); 100 % of control under setting [3]; 116 % of control (dose: 200.0 mg/kg/injection, schedule: Q04DX003 (ip), vehicle: other); 100 % of control (dose: 200.0 mg/kg/injection, schedule: Q04DX003 (ip), vehicle: saline); 87 % of control (dose: 400.0 mg/kg/injection, schedule: Q01DX001 (ip), vehicle: other); 105 % of control (dose: 400.0 mg/kg/injection, schedule: Q01DX009 (ip), vehicle: saline with Tween-80). For the same compound, the T/C reads like this: (dose: 400.0 mg/kg/injection, schedule: Q04DX003 (ip), vehicle: saline with Tween-80) 150 % of control; (dose: 400.0 mg/kg/injection, schedule: Q04DX003 (ip), vehicle: saline) 86 % of control.
For `CC1(C)O[C@@H]2C[C@H]3[C@@H]4CCC5=CC(=O)C=C[C@]5(C)[C@@]4(F)[C@@H](O)C[C@]3(C)[C@]2(C(=O)CO)O1`, the T/C is, setting by setting: under setting [1], 100 % of control; (dose: 100.0 mg/kg/injection, schedule: Q04DX003 (ip), vehicle: saline with Tween-80) 108 % of control; (dose: 200.0 mg/kg/injection, schedule: Q04DX003 (ip), vehicle: saline with Tween-80) 100 % of control.
As for `CC(=N\O)/C(C)=N/O.CC(=N\O)/C(C)=N/O.O.[CH3-].[Co]`, the T/C runs as follows: under setting [4], 100 % of control; under setting [5], 97 % of control.
On to `COc1cc(N/C(N)=N\C(N)=NC(C)C)cc(OC)c1OC`, for which the T/C (dose: 100.0 mg/kg/injection, schedule: Q04DX003 (ip), vehicle: saline sonified) is 95 % of control.
As to `CCC/C(=C\C(=O)O)CC`, the T/C was 109 % of control under setting [6], 100 % of control under setting [7] and 104 % of control under setting [8].
For the compound `CO[C@@H]1C=C[C@@]23c4cc5c(cc4CN(C[C@@H]2O)[C@H]3C1)OCO5`, the T/C by setting is: (dose: 18.75 mg/kg/injection, schedule: Q01DX010 (ip), vehicle: saline) 104 % of control; (dose: 37.5 mg/kg/injection, schedule: Q01DX010 (ip), vehicle: saline) 104 % of control.
Take `COc1ccc(-c2csc(=[N+]3CCCCC3)s2)cc1`: the T/C (dose: 12.5 mg/kg/injection, schedule: Q04DX003 (ip), vehicle: saline) was 105 % of control; the T/C (dose: 25.0 mg/kg/injection, schedule: Q04DX003 (ip), vehicle: saline) was 122 % of control; the T/C (dose: 50.0 mg/kg/injection, schedule: Q04DX003 (ip), vehicle: saline) is 87 % of control.
Consider `O=C(Nc1ccccc1C(=O)O)c1cc([N+](=O)[O-])cc([N+](=O)[O-])c1`, for which, under setting [1], the T/C was 117 % of control.
Take `CC(=O)n1nc(Cl)c2ccc([N+](=O)[O-])cc21`: the T/C by setting is: under setting [1], 97 % of control; under setting [2], 100 % of control; under setting [3], 100 % of control.
With `Cc1cc2nc3c(=O)[nH]c(=O)nc-3n(CCOC(=O)CCC(=O)O)c2cc1C`, the T/C is, setting by setting: (dose: 50.0 mg/kg/injection, schedule: Q01DX009 (ip), vehicle: saline sonified) 100 % of control; (dose: 100.0 mg/kg/injection, schedule: Q01DX009 (ip), vehicle: saline sonified) 100 % of control; (dose: 200.0 mg/kg/injection, schedule: Q01DX009 (ip), vehicle: saline sonified) 118 % of control.
For the compound `CCCCCCCCCCCCS(=O)CC(C)O` (centres undefined), the T/C (dose: 100.0 mg/kg/injection, schedule: Q01DX009 (ip), vehicle: other) is 123 % of control.
Turning to `CCOC(=O)C(C#N)C1CCCCC1` (centres undefined), the T/C under setting [6] is 100 % of control; the T/C (dose: 100.0 mg/kg/injection, schedule: Q04DX003 (ip), vehicle: Klucel (hydroxypropylcellulose) (HPC)) was 104 % of control; the T/C under setting [7] was 104 % of control; the T/C (dose: 200.0 mg/kg/injection, schedule: Q04DX003 (ip), vehicle: Klucel (hydroxypropylcellulose) (HPC)) was 104 % of control; the T/C under setting [8] was 109 % of control; the T/C (dose: 400.0 mg/kg/injection, schedule: Q04DX003 (ip), vehicle: Klucel (hydroxypropylcellulose) (HPC)) was 90 % of control.
For the compound `CCN1/C(=C/C=C/c2oc3ccccc3[n+]2CC)Oc2ccccc21`, the T/C (dose: 0.13 mg/kg/injection, schedule: Q01DX010 (ip), vehicle: saline) was 118 % of control; the T/C (dose: 0.15 mg/kg/injection, schedule: Q01DX009 (ip), vehicle: saline) was 108 % of control; the T/C (dose: 0.25 mg/kg/injection, schedule: Q01DX010 (ip), vehicle: saline) is 118 % of control; the T/C (dose: 0.6 mg/kg/injection, schedule: Q01DX009 (ip), vehicle: Klucel (hydroxypropylcellulose) (HPC)) is 165 % of control; the T/C (dose: 37.5 micrograms/kg/injection, schedule: Q01DX009 (ip), vehicle: Klucel (hydroxypropylcellulose) (HPC)) was 108 % of control; the T/C (dose: 75.0 micrograms/kg/injection, schedule: Q01DX009 (ip), vehicle: Klucel (hydroxypropylcellulose) (HPC)) is 104 % of control. The T/C (dose: 150.0 micrograms/kg/injection, schedule: Q01DX009 (ip), vehicle: Klucel (hydroxypropylcellulose) (HPC)) is 116 % of control.
As to `CC1CC[N-]CC1.CC1CC[N-]CC1.CC1CC[N-]CC1.CC1CC[N-]CC1.O=C([O-])C(=O)[O-].O=C([O-])C(=O)[O-].[Nb+5].[O-][O-].[O-][O-].[Pt+4]`, the T/C is, setting by setting: (dose: 0.39 mg/kg/injection, schedule: Q01DX009 (ip), vehicle: saline) 106 % of control; (dose: 0.78 mg/kg/injection, schedule: Q01DX009 (ip), vehicle: saline) 102 % of control; (dose: 1.56 mg/kg/injection, schedule: Q01DX009 (ip), vehicle: saline) 115 % of control; (dose: 3.12 mg/kg/injection, schedule: Q01DX009 (ip), vehicle: saline) 102 % of control.
In the case of `Cc1nc(CN(C)C)c2cnccn12`, the T/C is 95 % of control under setting [4]; 104 % of control under setting [5]; 100 % of control (dose: 25.0 mg/kg/injection, schedule: Q01DX009 (ip), vehicle: saline).
